{"source": "patent US7601494B2", "about": "“Method of screening candidate compounds for susceptibility to biliary excretion” (The University of North Carolina at Chapel Hill, priority 1999, dated 2009)", "key": {"[1]": {"system": "SCRH", "assay": "Lactate dehydrogenase activity assay of culture medium of SCRH", "assay_type": "cell-based, rat", "settings": "after three days in culture, mean±SEM", "experimental": "Prior to the functional studies, cell culture medium was assayed for lactate dehydrogenase activity, an intracellular enzyme whose leakage into extracellular medium is inversely related to cell viability. Lactate dehydrogenase activity was assayed with kit 500-C (Sigma Diagnostics, St. Louis, Mo. USA) utilizing lactate dehydrogenase-catalyzed reduction of pyruvate to lactate, subsequent conjugation of remaining pyruvate with 2,4-dinitrophenylhydrazine, and spectrophotometric detection (λ=500 nm) of the pyruvate-2,4-dinitrophenylhydrazone conjugate at alkaline pH (Cabaud and Wroblewski, Am. J. Clin. Pathol. 30:234-236,1958)."}, "[2]": {"system": "Mrp2", "assay": "Immunoblot analysis of Mrp2 expression in siRNA-treated SCRH", "assay_type": "cell-based, rat", "settings": "vs siFL-transfected and non-transfected cells", "experimental": "(§1) HepG2 cells were maintained in Dulbecco's modified Eagle's medium/F-12 plus 10% FBS. Rat hepatocytes were isolated from male Wistar rats (220-300g) by in situ collagenase perfusion (Annaert et al., Drug Metab Dispos 29:1277-1283, 2001). Cells were seeded at a density of 1.5×10^6 cells per well onto polystyrene 6-well plates pre-coated with rat tail type I collagen; a top layer of gelled collagen was overlaid 24 hr after plating. Rat hepatocyte cultures were maintained in Dulbecco's modified Eagle's medium supplemented with 0.1 μM dexamethasone and 0.1% ITS culture supplement (6.25 mg/mL insulin, 6.25 mg/mL transferrin, 6.25 μg/mL selenous acid, 5.35 mg/mL linoleic acid, and […]). Medium was changed every 24 hr.\n(§2) HepG2 cells were seeded at a density of 2×10^5 cells per well onto 12-well plates 24 hr before transfection. A mixture of 100 ng firefly luciferase expression plasmid (PGL3-FL) and 100 ng Renilla luciferase expression plasmid (PRL-TK) and various amounts of firefly luciferase siRNA were used per well. Transfections of SCRH were performed at 20 hr after plating, unless specifically indicated. siRNA (2 μg unless specified) was used per well in 6-well plates. siRNA and DNA were formulated for transfection using […]™ transfection reaction kit (QIAGEN Inc. Valencia, Calif. USA). Briefly, siRNA was condensed in Enhancer EC at a ratio of 1:2 (μg of total RNA and/or DNA : μl of Enhancer), and formulated with TransMessenger at a ratio of 1:4 (μg of RNA and /or DNA: μl of TransMessenger) and then incubated with cells. For transfections of HepG2 cells, medium was changed after an overnight incubation with siRNA. For transfections of SCRH, cells were incubated with siRNA for 4 hr and then were overlaid with collagen. siRNA delivery into hepatocytes was more efficient before overlay of the top collagen layer. The effect of transfection was examined 48 hr later.\n(§3) Cells were harvested 48 hr post transfection and lysed in 1% SDS, 1 mM EDTA plus COMPLETE™ protease inhibitor cocktail (Roche Diagnostics, Mannheim, Germany). The protein concentration of the clear cell lysate was determined with the BCA Protein Assay Reagent Kit (Pierce Biotech, Inc. Rockford, Ill.). […] of total protein per lane was resolved by electrophoresis on NuPAGE 4-12% Bis-Tris Gel (Invitrogen Life Technology, Carlsbad, Calif. USA) and were transferred onto polyvinylidone difluoride membranes. The following antibodies were used to probe the membranes: anti-Mrp2 (M2111-6, Alexis Biochemicals, San Diego, Calif. USA); anti-Mrp3 (kind gift from Dr. Yuichi Sugiyama); anti-Radixin (Chemicon International, Inc. Temecula, Calif. USA), anti-β-actin (MAB1501, Chemicon)."}, "[3]": {"system": "Mrp3", "assay": "Immunoblot analysis of Mrp3 expression in siRNA-treated SCRH", "assay_type": "cell-based, rat", "settings": "vs siFL-transfected and non-transfected cells", "experimental": "as §1, §2, §3"}, "[4]": {"target": "T1, Mrp3 (Rattus norvegicus, UniProt O88563)", "T1 construct": "endogenous in cells; host or cells: sandwich-cultured primary hepatocytes of male Wistar rats", "T1 sequence (O88563 whole entry)": "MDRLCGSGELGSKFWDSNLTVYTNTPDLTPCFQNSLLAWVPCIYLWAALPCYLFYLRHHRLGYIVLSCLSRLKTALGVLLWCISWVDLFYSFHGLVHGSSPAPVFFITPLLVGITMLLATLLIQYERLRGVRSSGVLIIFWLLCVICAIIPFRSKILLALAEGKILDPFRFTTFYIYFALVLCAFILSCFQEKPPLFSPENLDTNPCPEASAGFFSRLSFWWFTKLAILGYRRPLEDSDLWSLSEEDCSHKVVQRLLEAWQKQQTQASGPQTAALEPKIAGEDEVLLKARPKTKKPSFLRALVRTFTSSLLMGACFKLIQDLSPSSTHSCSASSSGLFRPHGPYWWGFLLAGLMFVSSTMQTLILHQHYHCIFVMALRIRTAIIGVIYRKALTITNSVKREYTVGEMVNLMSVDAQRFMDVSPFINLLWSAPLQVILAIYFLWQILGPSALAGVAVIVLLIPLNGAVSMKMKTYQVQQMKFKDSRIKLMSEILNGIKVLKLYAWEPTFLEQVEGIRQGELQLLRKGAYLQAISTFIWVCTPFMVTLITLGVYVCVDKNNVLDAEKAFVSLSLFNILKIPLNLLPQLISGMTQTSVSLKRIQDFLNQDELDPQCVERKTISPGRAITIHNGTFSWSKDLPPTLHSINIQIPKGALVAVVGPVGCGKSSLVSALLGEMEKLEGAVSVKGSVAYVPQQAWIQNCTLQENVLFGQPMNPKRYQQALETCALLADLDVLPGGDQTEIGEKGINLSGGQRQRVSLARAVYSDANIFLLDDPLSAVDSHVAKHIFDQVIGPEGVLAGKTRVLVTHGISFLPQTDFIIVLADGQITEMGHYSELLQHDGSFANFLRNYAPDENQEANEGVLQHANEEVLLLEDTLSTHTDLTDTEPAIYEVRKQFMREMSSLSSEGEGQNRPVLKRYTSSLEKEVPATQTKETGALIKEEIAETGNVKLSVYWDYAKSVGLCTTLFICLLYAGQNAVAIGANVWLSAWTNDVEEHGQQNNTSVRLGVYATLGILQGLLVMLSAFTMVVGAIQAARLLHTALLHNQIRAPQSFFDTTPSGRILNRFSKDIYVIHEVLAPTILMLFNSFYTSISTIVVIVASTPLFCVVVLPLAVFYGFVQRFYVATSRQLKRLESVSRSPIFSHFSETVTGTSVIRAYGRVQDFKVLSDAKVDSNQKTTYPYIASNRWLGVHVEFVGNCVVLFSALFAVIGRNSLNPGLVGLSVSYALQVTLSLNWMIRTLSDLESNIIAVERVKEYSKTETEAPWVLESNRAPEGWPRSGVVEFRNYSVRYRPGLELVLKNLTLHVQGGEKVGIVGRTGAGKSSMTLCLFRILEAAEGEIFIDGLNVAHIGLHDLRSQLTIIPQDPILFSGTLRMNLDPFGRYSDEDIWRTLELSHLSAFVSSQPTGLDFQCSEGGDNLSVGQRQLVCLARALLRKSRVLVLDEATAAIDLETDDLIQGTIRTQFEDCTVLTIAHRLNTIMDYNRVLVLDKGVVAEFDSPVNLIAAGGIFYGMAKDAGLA", "assay": "Assessment of Mrp3 function with CDF disposition in siMrp3-treated SCRH (30 min washout)", "assay_type": "cell-based", "experimental": "Cells were rinsed twice with Hanks' balanced salt solution (HBSS, 2 mL, 37° C.) and incubated (10 min, 1.5 mL, 37° C.) with 2 μM CDF diacetate (Molecular Probes, Eugene, Oreg. USA), and were then rinsed twice with cold HBSS (2 mL, 4° C.). Cell images were taken with a Axiovert 100TV inverted microscope. Accumulation of CDF in cells+bile canaliculi and cells only was assessed in SCRH pre-incubated (10 min, 2 mL, 37° C.) with standard HBSS and Ca^2+-free HBSS, respectively (Liu et al., J. Pharmacol. Exp. Ther. 289:1592-1599, 1999). SCRH were subsequently incubated with CDF diacetate (10 min, 2 mL, 37° C.). In siMrp2-treated SCRH, cells were then rinsed four times with cold HBSS (2 mL, 4° C.) and lysed (1 mL, 0.5% TritonX-100 in phosphate-buffered saline). In siMrp3-treated SCRH, following incubation with CDF diacetate, cells were rinsed four times with warm HBSS (2 mL, 37° C.) and were incubated with HBSS (30 min, HBSS changed every 10 min, 2 mL, 37° C.) to allow time for intracellular CDF to undergo appreciable basolateral excretion prior to rinsing the SCRH four times with cold HBSS and lysing the cells (as above). CDF fluorescence in lysate was quantified with fluorescence spectrophotometry (λex=485 nm, λem=[…]); protein concentration was determined with the BCA method kit (as above)."}}}
{"substance": "siMrp3: siRNA targeting rat Mrp3, GGUCCAAGGACCUGCCUCCCA (SEQ ID NO: 6), nucleotides 1950-1970 of Mrp3 cDNA (listed as RNA, chemistry not given here)", "values": [{"measurement": "lactate dehydrogenase activity", "setting": "[1]", "value": "87±3 % non-transfected control SCRH"}, {"measurement": "expression of Mrp2 (in words)", "setting": "[2]", "value": "no change in expression of Mrp2"}, {"measurement": "Mrp3 protein expression (in words)", "setting": "[3]", "value": "a decrease in Mrp3 protein expression"}, {"measurement": "increase of biliary excretion index of CDF", "setting": "[4]; transfected SCRH, after 30 min washout, vs control", "value": "~60", "unit": "%"}, {"measurement": "biliary excretion index of CDF", "setting": "[4]; transfected SCRH, after 30 min washout, control 36.2%", "value": 57.5, "unit": "%"}, {"measurement": "CDF accumulation in cells only", "setting": "[4]; transfected SCRH, after 30 min washout, non-transfected control 15.6±4.0", "value": "13.7±2.2", "unit": "pmol/mg protein/10 min"}, {"measurement": "CDF accumulation in cells+bile canaliculi", "setting": "[4]; transfected SCRH, after 30 min washout, non-transfected control 24.4±4.3", "value": "32.3±2.5", "unit": "pmol/mg protein/10 min"}, {"measurement": "CDF fluorescence in canalicular networks (in words)", "setting": "[4]; vs siFL-transfected or non-transfected cells", "value": "more intense"}]}
